Data published in patent US20140079836A1, “METHODS AND COMPOSITIONS FOR ALTERING HEALTH, WELLBEING, AND LIFESPAN” (LifeSpan Extension, LLC, priority 2008, published 2014).

Tested on: genes involved in longevity (Array 1)
Assay: Custom RT-PCR microarray (Array 1) gene expression in skin fibroblasts, UVB/UVA1
Type: cell-based, human
Settings: for RTC gene expression fold change / PPC gene expression fold change: control well
Procedure: Seeding of cells: On Day 1, each cell culture was seeded into 6 well cluster dishes at ˜1.5×10^5 cells in 4 mls medium per well. Three wells were seeded per test condition or control.
Experimental phase: On Day 3, wells were washed 1× with 2 mls medium, fed back 2 mls medium without fetal bovine serum and preincubated for 30-60 minutes before challenge with test or control conditions. After the preincubation, medium was aspirated from the wells and 2.5 mls of test or control condition in medium with 1% fetal bovine serum was pipetted into the appropriate wells.
(3) UVA1, UVB exposed and unexposed cells without test condition were used as controls. The experimental phase ended at 24 hours post UV exposure. Cells from each test and control parameter were then prepped for RNA isolation as described below.
UVB/UVA1 exposure: Cells exposed to UV received 200 mJ/cm^2 UVB/1 MED UVA1 using Thermo Oriel solar simulator model SP66923-3056. Cells were exposed from the bottom of the culture dish. The UV dose delivered to the cells was adjusted for interference from the plastic in the culture dish.
Preparation of RNA: The RNA was isolated using the Qiagen RNEasy Plus Mini Kit according to the manufacturer's protocol which can be found on the World Wilde Web at qiagen.com/literature/Defaultaspx?Term=&Language=EN&LiteratureType=4& ProductCategory=10162. The RNA was quantified and examined for purity using the 260/280 nm read method in a μ Quant spectrophotometer before use in the array.
Creation and Performance of a Custom Microarray (“Array 1”): Through the Custom Array design service of Superarray Bioscience Corporation, a 96 well RT-PCR microarray (“Array 1”) was developed to illustrate genetic responses in cells treated as above for specific genes involved in longevity as well as the relevant quality controls. The array was performed in compliance with manufacturer's guidelines and by recommended manufacturer's protocol as can be found on the World Wilde Web at superarray.com/Manual/perarrayplate.pdf
(§1) Custom Microarray Results: The results from the microarrays were determined using the delta CT method which uses comparisons of control genes and threshold cycles of genes of interest to generate relative expression values. The full set of experimental conditions was cross referenced and the data is provided herewith in DATA TABLE 3.
Preparation of RNA: The RNA was isolated using the Qiagen RNEasy Plus Mini Kit according to the manufacturer's protocol which can be found on the World Wide Web at qiagen.com/literature/Default. aspx?Term=&Language=EN&LiteratureType=4&ProductCategory=10162.
The RNA was quantified and examined for purity using the 260/280 nm read method in a μ Quant spectrophotometer before use in the array.
Creation and Performance of the Custom Microarray: Through the Custom Array design service of Superarray Bioscience Corporation, a 96 well RT-PCR Microarray was developed to illustrate genetic responses in cells treated as above for specific genes involved in longevity as well as the relevant quality controls. The array was performed in compliance with manufacturer's guidelines and by recommended manufacturer's protocol as can be found on the World Wide Web at superarray.com/Manual/perarrayplate.pdf.
as §1, with “4.” for “3.”
as §1, with “5. […]” for “3.”

[1] = donor three vs. donor two idebenone + UVB Continuous Incubation
[2] = donor two idebenone + UVB 4 hr Incubation
[3] = donor two idebenone + UVB Continuous Incubation
[4] = donor two idebenone + UVB vs. Green tea + UVB 4 hr Incubation
[5] = donor two idebenone + UVB vs. Green tea + UVB Continuous Incubation

COC1=C(OC)C(=O)C(CCCCCCCCCCO)=C(C)C1=O [Idebenone, 6-(10-hydroxydecyl)-2,3-dimethoxy-5-methyl-1,4-benzoquin-one]
HSPA1A expression fold change [1]: 2.28 | HSPA1B expression fold change [1]: 2.62 | HSPA1L expression fold change [1]: 1.61 | IFI44 expression fold change [1]: −1.43 | IGF1 expression fold change [1]: −1.08 | IGF2 expression fold change [1]: −1.16 | IL1A expression fold change [1]: 2.20 | IL6 expression fold change [1]: 3.97 | IL10 expression fold change [1]: 1.14 | KRAS expression fold change [1]: 1.18 | MAPK14 expression fold change [1]: 1.03 | NADSYN1 expression fold change [1]: 2.28 | NFKB1 expression fold change [1]: 1.56 | NOS2A expression fold change [1]: 1.56 | PARP1 expression fold change [1]: 2.05 | PARP2 expression fold change [1]: −1.48 | PPARG expression fold change [1]: −1.76 | PTGS2 expression fold change [1]: 2.44 | SHC1 expression fold change [1]: 1.67 | SIRT1 expression fold change [1]: −1.04 | SOD1 expression fold change [1]: 2.44 | SOD2 expression fold change [1]: −1.38 | TEP1 expression fold change [1]: 1.31 | TERT expression fold change [1]: 2.13 | TNF expression fold change [1]: 1.40 | TP53 expression fold change [1]: −1.04 | ACE expression fold change [2]: 1.22 | ACTB expression fold change [2]: −1.01 | APOE expression fold change [2]: 1.03 | BAX expression fold change [2]: 1.40 | BCL2 expression fold change [2]: 1.40 | CASP2 expression fold change [2]: −1.53 | CASP9 expression fold change [2]: 1.27 | CCL4L1 expression fold change [2]: 1.06 | CLK1 expression fold change [2]: −1.24 | COX1 expression fold change [2]: 1.14 | CREBBP expression fold change [2]: 1.10 | CYP19A1 expression fold change [2]: 1.40 | DDC expression fold change [2]: 1.45 | GAPDH expression fold change [2]: −1.95 | GH1 expression fold change [2]: −1.04 | HIGX1A fold change [2]: −1.42 | HLA-DRA expression fold change [2]: 1.22 | HPRT1 expression fold change [2]: 1.03 | HSPA1A expression fold change [2]: 1.06 | HSPA1B expression fold change [2]: 1.56 | HSPA1L expression fold change [2]: 1.40 | IFI44 expression fold change [2]: 2.20 | IGF1 expression fold change [2]: −1.47 | IGF2 expression fold change [2]: 1.06 | IL1A expression fold change [2]: −2.16 | IL6 expression fold change [2]: −11.39 | IL10 expression fold change [2]: 1.14 | KRAS expression fold change [2]: 1.73 | MAPK14 expression fold change [2]: 1.27 | NADSYN1 expression fold change [2]: −1.08 | NFKB1 expression fold change [2]: 2.20 | NOS2A expression fold change [2]: 1.61 | PARP1 expression fold change [2]: 1.92 | PARP2 expression fold change [2]: 1.22 | PPARG expression fold change [2]: 1.18 | PTGS2 expression fold change [2]: 1.61 | SHC1 expression fold change [2]: 2.06 | SIRT1 expression fold change [2]: 1.18 | SOD1 expression fold change [2]: −1.08 | SOD2 expression fold change [2]: 1.27 | TEP1 expression fold change [2]: 1.31 | TERT expression fold change [2]: −1.38 | TNF expression fold change [2]: −1.20 | TP53 expression fold change [2]: −1.64 | ACE expression fold change [3]: 1.92 | ACTB expression fold change [3]: 1.31 | APOE expression fold change [3]: 1.18 | BAX expression fold change [3]: −1.04 | BCL2 expression fold change [3]: 3.83 | CASP2 expression fold change [3]: 1.14 | CASP9 expression fold change [3]: 2.13 | CCL4L1 expression fold change [3]: 1.40 | CLK1 expression fold change [3]: 1.85 | COX1 expression fold change [3]: −1.43 | CREBBP expression fold change [3]: 1.18 | CYP19A1 expression fold change [3]: 1.31 | DDC expression fold change [3]: 1.85 | GAPDH expression fold change [3]: −1.38 | GH1 expression fold change [3]: 3.01 | HIGX1A fold change [3]: 1.22 | HLA-DRA expression fold change [3]: 2.44 | HPRT1 expression fold change [3]: 5.23 | HSPA1A expression fold change [3]: 1.50 | HSPA1B expression fold change [3]: 3.70 | HSPA1L expression fold change [3]: −2.48 | IFI44 expression fold change [3]: 1.56 | IGF1 expression fold change [3]: 3.45 | IGF2 expression fold change [3]: −1.12 | IL1A expression fold change [3]: 3.57 | IL6 expression fold change [3]: 3.01 | IL10 expression fold change [3]: 2.05 | KRAS expression fold change [3]: 2.13 | MAPK14 expression fold change [3]: 2.44 | NADSYN1 expression fold change [3]: 1.56 | NFKB1 expression fold change [3]: 3.70 | NOS2A expression fold change [3]: 1.98 | PARP1 expression fold change [3]: 1.67 | PARP2 expression fold change [3]: 2.53 | PPARG expression fold change [3]: 3.22 | PTGS2 expression fold change [3]: 2.71 | SHC1 expression fold change [3]: 1.92 | SIRT1 expression fold change [3]: 1.98 | SOD1 expression fold change [3]: 1.10 | SOD2 expression fold change [3]: 1.03 | TEP1 expression fold change [3]: 1.79 | TERT expression fold change [3]: 8.50 | TNF expression fold change [3]: 1.50 | TP53 expression fold change [3]: 1.67 | ACE expression fold change [4]: 1.32 | ACTB expression fold change [4]: −3.03 | APOE expression fold change [4]: 1.04 | BAX expression fold change [4]: 1.11 | BCL2 expression fold change [4]: 1.19 | CASP2 expression fold change [4]: −1.23 | CASP9 expression fold change [4]: 1.15 | CCL4L1 expression fold change [4]: 10.95 | CLK1 expression fold change [4]: −1.11 | COX1 expression fold change [4]: −1.19 | CREBBP expression fold change [4]: 1.11 | CYP19A1 expression fold change [4]: 11.33 | DDC expression fold change [4]: 14.95 | GAPDH expression fold change [4]: −2.92 | GH1 expression fold change [4]: 8.30 | HIGX1A fold change [4]: 8.30 | HLA-DRA expression fold change [4]: 16.03 | HPRT1 expression fold change [4]: 1.04 | HSPA1A expression fold change [4]: 1.32 | HSPA1B expression fold change [4]: 2.64 | HSPA1L expression fold change [4]: 1.87 | IFI44 expression fold change [4]: 2.15 | IGF1 expression fold change [4]: 4.77 | IGF2 expression fold change [4]: 1.00 | IL1A expression fold change [4]: 1.28 | IL6 expression fold change [4]: −9.83 | IL10 expression fold change [4]: 4.29 | KRAS expression fold change [4]: −1.11 | MAPK14 expression fold change [4]: 1.32 | NADSYN1 expression fold change [4]: −1.19 | NFKB1 expression fold change [4]: −1.03 | NOS2A expression fold change [4]: 17.18 | PARP1 expression fold change [4]: 1.52 | PARP2 expression fold change [4]: 5.87 | PPARG expression fold change [4]: 2.74 | PTGS2 expression fold change [4]: 2.22 | SHC1 expression fold change [4]: 1.11 | SIRT1 expression fold change [4]: 1.63 | SOD1 expression fold change [4]: 1.52 | SOD2 expression fold change [4]: −1.32 | TEP1 expression fold change [4]: 2.55 | TERT expression fold change [4]: 3.37 | TNF expression fold change [4]: 6.98 | TP53 expression fold change [4]: −1.51 | ACE gene expression fold change [5]: 1.33 | ACTB gene expression fold change [5]: −1.67 | APOE gene expression fold change [5]: 1.16 | BAX gene expression fold change [5]: −1.45 | BCL2 gene expression fold change [5]: −1.10 | CASP2 gene expression fold change [5]: −1.79 | CASP9 gene expression fold change [5]: 1.58 | CCL4L1 gene expression fold change [5]: 4.97 | CLK1 gene expression fold change [5]: 1.01 | COX1 gene expression fold change [5]: −2.53 | CREBBP gene expression fold change [5]: −1.10 | CYP19A1 gene expression fold change [5]: 8.07 | DDC gene expression fold change [5]: 24.46 | GAPDH gene expression fold change [5]: −1.10 | GH1 gene expression fold change [5]: 25.33 | HIGX1A gene expression fold change [5]: 6.12 | HLA-DRA gene expression fold change [5]: 58.18 | HPRT1 gene expression fold change [5]: 2.40 | HSPA1A gene expression fold change [5]: 1.12 | HSPA1B gene expression fold change [5]: 1.16 | HSPA1L gene expression fold change [5]: −1.61 | IFI44 gene expression fold change [5]: 1.29 | IGF1 gene expression fold change [5]: 6.12 | IGF2 gene expression fold change [5]: −1.14 | IL1A gene expression fold change [5]: 10.65 | IL6 gene expression fold change [5]: 1.04 | IL10 gene expression fold change [5]: 4.32 | KRAS gene expression fold change [5]: 1.53 | MAPK14 gene expression fold change [5]: 1.64 | NADSYN1 gene expression fold change [5]: 1.12 | NFKB1 gene expression fold change [5]: 2.24 | NOS2A gene expression fold change [5]: 15.06 | PARP1 gene expression fold change [5]: −1.98 | PARP2 gene expression fold change [5]: 4.48 | PPARG gene expression fold change [5]: 2.16 | PTGS2 gene expression fold change [5]: −1.06 | SHC1 gene expression fold change [5]: 1.48 | SIRT1 gene expression fold change [5]: 1.88 | SOD1 gene expression fold change [5]: −1.56 | SOD2 gene expression fold change [5]: 1.33 | TEP1 gene expression fold change [5]: 1.12 | TERT gene expression fold change [5]: 7.53 | TNF gene expression fold change [5]: 10.29 | TP53 gene expression fold change [5]: 1.88 | RTC gene expression fold change (donor two idebenone + UVB vs. Green tea + UVB Continuous Incubation, entry r283): 1.08 | PPC gene expression fold change (donor two idebenone + UVB vs. Green tea + UVB Continuous Incubation, entry r289): −1.67 | RTC gene expression fold change (donor two idebenone + UVB vs. Green tea + UVB Continuous Incubation, entry r293): 2.09 | PPC gene expression fold change (donor two idebenone + UVB vs. Green tea + UVB Continuous Incubation, entry r295): −1.35
